In series [1] the target is T1, HNE (human neutrophil elastase) (Homo sapiens, UniProt P08246).
T1 construct: purchased Calbiochem
T1 sequence (P08246 30-267): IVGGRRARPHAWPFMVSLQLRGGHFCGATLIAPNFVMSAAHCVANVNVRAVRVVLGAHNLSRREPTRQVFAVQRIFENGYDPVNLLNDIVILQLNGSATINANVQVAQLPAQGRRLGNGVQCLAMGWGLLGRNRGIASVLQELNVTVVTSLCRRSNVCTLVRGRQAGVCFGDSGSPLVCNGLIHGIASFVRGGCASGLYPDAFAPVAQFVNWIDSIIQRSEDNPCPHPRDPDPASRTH
The series can be described thus: HNE inhibition assay (fluorogenic substrate cleavage). It counts as biochemical. The note with it: for HNE inhibitory activity, result in words: highest concentration tested 50 µM; for IC50: mean ± SD of three independent experiments, NA: no inhibitory activity at the highest concentration tested (50 µM).
Procedure: Compounds were dissolved in 100% DMSO at 5 mM stock concentrations. […] The HNE inhibition assay was performed in black flat-bottom 96-well microtiter plates. Briefly, a buffer solution containing 200 mM Tris–HCl, pH 7.5, 0.01% bovine serum albumin, and 0.05% Tween-20 and 20 mU/mL of HNE (Calbiochem) was added to wells containing different concentrations of each compound. The reaction was initiated by addition of 25 µM elastase substrate (N-methylsuccinyl-Ala-Ala-Pro-Val-7-amino-4-methylcoumarin, Calbiochem) in a final reaction volume of 100 µl/well. Kinetic measurements were obtained every 30 s for 10 min at 25 °C using a Fluoroskan Ascent FL fluorescence microplate reader (Thermo Electron, MA) with excitation and emission wavelengths set at 355 and 460 nm, respectively. For all compounds tested, the concentration of inhibitor that caused 50% inhibition of the enzymatic reaction (IC50) was calculated by plotting % inhibition versus logarithm of inhibitor concentration (at least six points). The data are presented as the mean values of at least three independent experiments with relative standard deviations of <15%.

A short description of series [2]: Analysis of compound stability: spontaneous hydrolysis in aqueous buffer. It counts as physicochemical. The settings on record: 25 °C, 0.05 M phosphate buffer, pH 7.3; read-out: t1/2 for spontaneous hydrolysis (converted). How it is done: Spontaneous hydrolysis of selected derivatives was evaluated at 25 °C in 0.05 M phosphate buffer, pH 7.3. Kinetics of hydrolysis were monitored by measuring changes in the absorbance spectra over time using a SpectraMax Plus microplate spectrophotometer (Molecular Devices, Sunnyvale, CA). Absorbance (At) at the characteristic absorption maxima of each compound was measured at the indicated times until no further absorbance decreases occurred (A∞)[52]. Using these measurements, we created semilogarithmic plots of log(At–A∞) versus time, and k′ values were determined from the slopes of these plots. Half-conversion times were calculated using t1/2 = 0.693/k′, as described previously[36]^,[37].

Several values for one entry are separate records, joined by “and”; a condition that tells them apart may be missing. Equal entries are not always repeated.

As for `Cc1cccc(Cn2oc(=O)c(-c3ccccc3)c2C)c1` [Compound 2, 3-Methyl-2-(3-methylbenzyl)-4-phenylisoxazol-5(2H)-one], the “HNE inhibitory activity, result in words” value in series [1] was “completely inactive”. For orientation: melting point means the temperature of the solid-liquid transition. `Cc1c(-c2ccccc2)c(=O)on1S(=O)(=O)c1ccc(O)cc1` [Compound 3a, 2-((4-Hydroxyphenyl)sulfonyl)-3-methyl-4-phenylisoxazol-5(2H)-one] came in with a melting point of 50 to 51 °C. Further, the “HNE inhibitory activity, result in words” value in series [1] is listed as “inactivity”.

In general, IC50 refers to the concentration that inhibits the measured activity by half. `Cc1c(-c2ccccc2)c(=O)on1S(=O)(=O)c1ccc(OC(=O)C(C)(C)C)cc1` [Compound 3b, 4-((3-Methyl-5-oxo-4-phenylisoxazol-2(5H)-yl)sulfonyl)phenyl pivalate] had an IC50 in series [1] of 0.059 ± 0.02 µM. As for `Cc1c(-c2ccccc2)c(=O)on1S(=O)(=O)c1ccc(NC(=O)C(C)(C)C)cc1` [Compound 3c, N-(4-((3-methyl-5-oxo-4-phenylisoxazol-2(5H)-yl)sulfonyl)phenyl)pivalamide], the “HNE inhibitory activity, result in words” value in series [1] is “completely inactive”. In turn, `Cc1ccc(C(=O)n2oc(=O)c(-c3ccccc3)c2C)cc1` [Compound 4c, 3-Methyl-2-(4-methylbenzoyl)-4-phenylisoxazol-5(2H)-one] returned a melting point of 134 to 136 °C. In series [1], this compound registered an IC50 of 0.23 ± 0.034 µM. Taken in the same sequence, the figures for `Cc1ccccc1C(=O)n1oc(=O)c(-c2ccccc2)c1C` [Compound 4d, 3-Methyl-2-(2-methylbenzoyl)-4-phenylisoxazol-5(2H)-one] were 99 to 100 °C and 0.35 ± 0.036 µM. Take `Cc1c(-c2ccccc2)c(=O)on1C(=O)c1cccc(C(F)(F)F)c1` [Compound 4e, 3-Methyl-4-phenyl-2-(3-(trifluoromethyl)benzoyl)isoxazol-5(2H)-one]: the melting point fell in the range of 96 to 97 °C. For the same compound, in series [1], the IC50 came out at 0.2 ± 0.027 µM. The compound `Cc1c(-c2ccccc2)c(=O)on1C(=O)c1cccc(S(C)(=O)=O)c1` [Compound 4f, 3-Methyl-2-(3-(methylsulfonyl)benzoyl)-4-phenylisoxazol-5(2H)-one] showed a melting point of 185 to 186 °C. The IC50 in series [1] was 29.6 ± 7.2 µM.

In turn, `Cc1c(-c2ccccc2)c(=O)on1C(=O)c1cccc(C#N)c1` [Compound 4g, 3-(3-Methyl-5-oxo-4-phenyl-2,5-dihydroisoxazole-2-carbonyl)benzonitrile] registered a melting point of 118 to 119 °C. Further, the IC50 in series [1] is 6.3 ± 1.4 µM.

Take `Cc1c(-c2ccccc2)c(=O)on1C(=O)c1ccc(C#N)cc1` [Compound 4h, 4-(3-Methyl-5-oxo-4-phenyl-2,5-dihydroisoxazole-2-carbonyl)benzonitrile]: the melting point is 178 to 180 °C (dec.). It took 11.4 ± 1.9 µM to reach half-maximal inhibition in series [1] (IC50). Taken in the same sequence, the figures for `Cc1c(-c2ccccc2)c(=O)on1C(=O)c1ccc(NC(=O)C(C)(C)C)cc1` [Compound 4i, N-(4-(3-methyl-5-oxo-4-phenyl-2,5-dihydroisoxazole-2-carbonyl)phenyl)pivalamide] were 132 to 134 °C and 8.5 ± 2.1 µM.

Take `Cc1c(-c2ccccc2)c(=O)on1C(=O)c1ccc(OC(=O)C(C)(C)C)cc1` [Compound 4l, 4-(3-Methyl-5-oxo-4-phenyl-2,5-dihydroisoxazole-2-carbonyl)phenyl pivalate]: the melting point was in the range of 130 to 132 °C. In series [1], this compound registered an IC50 of 0.48 ± 0.13 µM. Taken in the same sequence, the figures for `Cc1cccc(C(=O)n2oc(=O)c(-c3ccccc3)c2-c2ccccc2)c1` [Compound 4m, 2-(3-Methylbenzoyl)-3,4-diphenylisoxazol-5(2H)-one] were 160 to 163 °C and 10.1 ± 1.3 µM.

Consider `O=C(C1CC1)n1oc(=O)c(-c2ccccc2)c1-c1ccccc1` [Compound 4n, 2-(Cyclopropanecarbonyl)-3,4-diphenylisoxazol-5(2H)-one], for which the melting point lay in the range of 100 to 103 °C. Further, the IC50 in series [1] was found to be 17.2 ± 2.3 µM.

For the compound `Cc1cccc(C(=O)n2oc(=O)c(C)c2-c2ccccc2)c1` [Compound 4o, 4-Methyl-2-(3-methylbenzoyl)-3-phenylisoxazol-5(2H)-one], in series [1], the IC50 is 13.6 ± 2.4 µM. The same measure, in the same setting: in the case of `Cc1c(-c2ccccc2)n(C(=O)C2CC2)oc1=O` [Compound 4p, 2-(Cyclopropanecarbonyl)-4-methyl-3-phenylisoxazol-5(2H)-one] it was 1.1 ± 0.14 µM; in that of `Cc1cccc(C(=O)n2oc(=O)cc2-c2ccccc2)c1` [Compound 4q, 2-(3-Methylbenzoyl)-3-phenylisoxazol-5(2H)-one], 48.7 ± 3.3 µM; in that of `O=C(C1CC1)n1oc(=O)cc1-c1ccccc1` [Compound 4r, 2-(Cyclopropanecarbonyl)-3-phenylisoxazol-5(2H)-one], 12.7 ± 2.7 µM. Take `Cc1cccc(C(=O)n2oc(=O)cc2-c2ccc([N+](=O)[O-])cc2)c1` [Compound 4s, 2-(3-Methylbenzoyl)-3-(4-nitrophenyl)isoxazol-5(2H)-one]: the melting point is 177 to 180 °C (dec.). The “HNE inhibitory activity, result in words” value in series [1] is “completely inactive”. Consider `O=C(C1CC1)n1oc(=O)cc1-c1ccc([N+](=O)[O-])cc1` [Compound 4t, 2-(Cyclopropanecarbonyl)-3-(4-nitrophenyl)isoxazol-5(2H)-one], for which the “HNE inhibitory activity, result in words” value in series [1] is “completely inactive”.

In the case of `CC(=O)Nc1ccc(-c2cc(=O)on2C(=O)c2cccc(C)c2)cc1` [Compound 4u, N-(4-(2-(3-methylbenzoyl)-5-oxo-2,5-dihydroisoxazol-3-yl)phenyl)acetamide], half-maximal inhibition in series [1] (IC50) was put at 28.6 ± 3.3 µM.

Consider `Cc1cccc(C(=O)n2oc(=O)c(-c3ccc([N+](=O)[O-])cc3)c2C)c1` [Compound 7c, 3-Methyl-2-(3-methylbenzoyl)-4-(4-nitrophenyl)isoxazol-5(2H)-one], for which the melting point fell in the range of 152 to 154 °C. In series [1], this compound returned an IC50 of 0.21 ± 0.04 µM.

Regarding `Cc1ccc(-c2c(C)noc2OC(=O)c2cccc(C)c2)cc1` [Compound 8a, 3-Methyl-4-(p-tolyl)isoxazol-5-yl 3-methylbenzoate], in series [1], the IC50 was 10 µM and 10.2 µM. In series [2], the half-life was 5.3 h.

`Cc1cccc(C(=O)Oc2onc(C)c2-c2ccc(C#N)cc2)c1` [Compound 8b, 4-(4-Cyanophenyl)-3-methylisoxazol-5-yl 3-methylbenzoate] gave a melting point of 98 to 100 °C. This compound also yielded an IC50 in series [1] of 0.42 ± 0.13 µM.

As for `Cc1cccc(C(=O)Oc2onc(C)c2-c2ccc(NC(=O)C3CC3)cc2)c1` [Compound 8e, 4-(4-(Ciclopropanecarboxamido)phenyl)-3-methylisoxazol-5-yl3-me-thylbenzoate], the melting point lay in the range of 80 to 82 °C. The compound also had an IC50 in series [1] of 0.62 ± 0.21 µM. In addition, the half-life in series [2] was 5.6 h. Regarding `CCC(=O)n1oc(=O)c2ccccc21` [Compound 10a, 1-Propionylbenzo[c]isoxazol-3(1H)-one], the IC50 in series [1] was determined as 25.1 ± 3.6 µM.

Consider `CCCCC(=O)n1oc(=O)c2ccccc21` [Compound 10b, 1-Pentanoylbenzo[c]isoxazol-3(1H)-one], for which, in series [1], the “HNE inhibitory activity, result in words” value was “inactive”.

Consider `Cc1cccc(C(=O)n2oc(=O)c3ccccc32)c1` [Compound 10c, 1-(3-Methylbenzoyl)benzo[c]isoxazol-3(1H)-one], for which the melting point was in the range of 116 to 119 °C. The same compound displayed an IC50 in series [1] of 0.638 ± 0.121 µM.

For the origin of these results see article PMC6032016, “Synthesis, biological evaluation, and molecular modelling studies of potent human neutrophil elastase (HNE) inhibitors” (Journal of Enzyme Inhibition and Medicinal Chemistry, 2018).
